In publication PMC3885546, “Structural Determinants of the 5′-Methylthioinosine Specificity of Plasmodium Purine Nucleoside Phosphorylase” (PLoS ONE, 2014):
Substitutions are numbered along the chain they refer to. Like-named read-outs stand apart in the source and are kept apart here.

How the values were obtained:
PfPNP (wild type) = target: T1, PfPNP (wild type) (Plasmodium falciparum, UniProt Q8I3X4); test: Substrate kinetics, xanthine oxidase coupled phosphorolysis assay; type: biochemical
T1 construct: made in house; host or cells: Escherichia coli Top 10
T1 sequence (Q8I3X4 1-245): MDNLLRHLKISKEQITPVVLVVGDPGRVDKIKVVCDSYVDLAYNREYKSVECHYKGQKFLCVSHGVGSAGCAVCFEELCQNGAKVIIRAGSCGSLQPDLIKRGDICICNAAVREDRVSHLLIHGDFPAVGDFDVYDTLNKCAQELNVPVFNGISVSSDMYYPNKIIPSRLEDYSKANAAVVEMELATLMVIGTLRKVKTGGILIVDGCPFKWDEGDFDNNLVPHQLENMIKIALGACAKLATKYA
Method: (§1) Kinetic assays were completed in 50 mM KH2PO4 at pH 7.4 measuring phosphorylysis of inosine or MTI by PNP in a coupled reaction with 60 milliunits/ml xanthine oxidase to convert hypoxanthine to uric acid. Formation of uric acid was measured at 293 nm wavelength (E293 = 12.9 mM^−1 cm^−1), [20]. In cases where activity for MTI was low, increased protein concentration (10 µg/ml) was used to check enzyme function. Assays were performed with excess substrate in the presence of inhibitors. Inhibition studies measured both initial (Ki) and slow onset inhibition (Ki*) for inhibitors. The initial onset inhibition was analyzed by using the following equation: ν ο = (k cat×S)/(K m(1+I/Ki)+S), ν ο is the steady state rate, k cat catalytic rate, S is substrate concentration, Km is Michealis constant for inosine, I is inhibitor concentration, and Ki is the equilibrium dissociation constant.

TgPNP = settings: cited from earlier work; for Km / kcat: substrate = label
PfPNP Val66Phe = target: T2, PfPNP Val66Phe (Plasmodium falciparum, UniProt Q8I3X4, V66F); test: Substrate kinetics, coupled assay; type: biochemical; set-up: key to Km / kcat / kcat/Km: (-): Activity not detected under the experimental conditions; settings: for Km / kcat / kcat/Km: substrate = label
T2 construct: made in house; host or cells: Escherichia coli Top 10
T2 sequence (Q8I3X4 1-245 V66F): T1 sequence (Q8I3X4 1-245) with V66F
Method: as §1

PfPNP Val73Ser = target: T3, PfPNP Val73Ser (Plasmodium falciparum, UniProt Q8I3X4, V73S); test: Substrate kinetics, coupled assay; type: biochemical; settings: for Km / kcat: substrate = label
T3 construct: made in house; host or cells: Escherichia coli Top 10
T3 sequence (Q8I3X4 1-245 V73S): T1 sequence (Q8I3X4 1-245) with V73S
Method: as §1

PfPNP Met183Ala = target: T4, PfPNP Met183Ala (Plasmodium falciparum, UniProt Q8I3X4, M183A); test: Substrate kinetics, coupled assay; type: biochemical; set-up: key: (-): Activity not detected under the experimental conditions; settings: substrate = label
T4 construct: made in house; host or cells: Escherichia coli Top 10
T4 sequence (Q8I3X4 1-245 M183A): T1 sequence (Q8I3X4 1-245) with M183A
Method: as §1

PfPNP Arg45Ala = target: T5, PfPNP Arg45Ala (Plasmodium falciparum, UniProt Q8I3X4, R45A); test: Substrate kinetics, coupled assay; type: biochemical; set-up: key: (-): Activity not detected under the experimental conditions; settings: substrate = label
T5 construct: made in house; host or cells: Escherichia coli Top 10
T5 sequence (Q8I3X4 1-245 R45A): T1 sequence (Q8I3X4 1-245) with R45A
Method: as §1

PfPNP Asp206Ala = target: T6, PfPNP Asp206Ala (Plasmodium falciparum, UniProt Q8I3X4, D206A); test: Substrate kinetics, coupled assay; type: biochemical; set-up: key: (-): Activity not detected under the experimental conditions; settings: substrate = label
T6 construct: made in house; host or cells: Escherichia coli Top 10
T6 sequence (Q8I3X4 1-245 D206A): T1 sequence (Q8I3X4 1-245) with D206A
Method: as §1

PfPNP Val73Phe = target: T7, PfPNP Val73Phe (Plasmodium falciparum, UniProt Q8I3X4, V73F); test: Substrate kinetics, coupled assay; type: biochemical; set-up: key: (-): Activity not detected under the experimental conditions; settings: substrate = label
T7 construct: made in house; host or cells: Escherichia coli Top 10
T7 sequence (Q8I3X4 1-245 V73F): T1 sequence (Q8I3X4 1-245) with V73F
Method: as §1

Molecule	Km (TgPNP; ref Chaudhary, et al. [18]) [µM]	kcat (TgPNP; ref Chaudhary, et al. [18]) [s⁻¹]	kcat (PfPNP Val66Phe)	Km (PfPNP Val73Ser) [µM]	kcat (PfPNP Val73Ser) [s⁻¹]	kcat (PfPNP Met183Ala)	kcat (PfPNP Arg45Ala)	kcat (PfPNP Asp206Ala)	Km (PfPNP Val73Phe)	kcat (PfPNP Val73Phe)	kcat/Km (PfPNP Val73Phe)	further results
5′-methylthioinosine	31 ± 3	0.03 ± 0.00	(-)	2100	0.02 ± 0	(-)	(-)	(-)	(-)	(-)	(-)	kcat (PfPNP (wild type); substrate = label): 0.83 ± 0.03 s⁻¹; Km (PfPNP (wild type); substrate = label, 50 mM KH2PO4 pH 7.4, mean ± SD): 8.8 ± 0.2 µM; efficiency for MTI when compared to inosine (TgPNP): < 0.5%; Km (PfPNP Val66Phe): (-); kcat/Km (PfPNP Val66Phe): (-); kcat/Km (PfPNP Val66Phe; listed as MTI): no detectable activity; Km (PfPNP Met183Ala): (-); kcat/Km (PfPNP Met183Ala): (-); kcat/Km (PfPNP Met183Ala; listed as MTI): no detectable activity; Km (PfPNP Arg45Ala): (-); kcat/Km (PfPNP Arg45Ala): (-); Km (PfPNP Asp206Ala): (-); kcat/Km (PfPNP Asp206Ala): (-); kcat/Km (PfPNP Val73Phe; listed as MTI): no activity
OC[C@H]1O[C@@H](n2cnc3c(O)ncnc32)[C@H](O)[C@@H]1O [Inosine, inosine]	13 ± 1	2.6 ± 0.0	5.7 ± 3.4 s⁻¹	5	0.2 ± 0.0	0.4 ± 0.3 s⁻¹	0.05 ± 0.03 s⁻¹	0.04 ± 0.01 s⁻¹	(-)	(-)	(-)	Ino/MTI kcat/Km Ratio (PfPNP (wild type)): 1.6; Ino/MTI kcat/Km Ratio (TgPNP; ref Chaudhary, et al. [18]): 230; Km greater than for wildtype PfPNP (PfPNP Val66Phe): ~100 fold; Km (PfPNP Val66Phe; read-out: Km): 1500 ± 410 µM; Ino/MTI kcat/Km Ratio (PfPNP Val73Ser): 4100; Km (PfPNP Met183Ala; read-out: Km): 260 ± 64 µM; Km (PfPNP Arg45Ala; read-out: Km): 470 ± 291 µM; Km (PfPNP Asp206Ala; read-out: Km): 63 ± 6 µM
